Results from patent US4782052A, “Octahydroindolo[2,3-a]quinolizin-1-yl-alkanecarboxylic acid amines and their therapeutically useful acid addition salts, pharmaceutical compositions containing them and process for preparing same” (Richter Gedeon Vegyeszeti Gyar Rt., priority 1984, dated 1988).
Like-named read-outs stand apart in the source and are kept apart here.

How the values were obtained:
[1] = tested on: Indomethacin-induced intestinal ulceration; assay: Inhibition of the Indomethacin-induced intestinal ulceration; type: in vivo, H-Wistar rats; details: for Tensile strength of the intestinal wall at 24 hours after the last treatment: 3 consecutive days, ± S.E.M., Indomethacin control 72 ± 10, untreated 237 ± 4; for Resistance of the intestinal wall as % of the normal value: Indomethacin control 30
Method: Inhibition of the Indomethacin-induced intestinal ulceration Unstarved H-Wistar rats weighing 120 to 150 g. were used for these investigations. The animals were orally treated with Indomethacin. Under these conditions a period of 24 to 48 hours is at least required for the development of visually observable intestinal ulcers. For evaluating the small intestine ulcers, the tensile strength of the intestinal wall was determined by using the inflation method of Ezer and Sporny (1975), as the strength of the intestinal wall is diminished by the ulceration-induced erosion. The small intestine from the pylorus down to the caecum was removed and after ligation of the end it was connected through a polyethylene tube with a W+W electronic BP 8005 pressure recorder (Ugo Basile, Italy). The whole small intestine was placed into a 0.9% saline solution at 37° C. and the pressure was increased until air bubbles appeared at the attenuated (weakened) sites of the intestinal wall. This pressure as expressed in mmHg is the measure of the tensile strength.

[2] = tested on: aspirin-induced stomach ulcer; assay: Inhibition of the aspirin-induced stomach ulcer in rats; type: in vivo, Female H-Wistar rats; details: for No. of ulcers per stomach: ± S.E.M., aspirin control 16.6 ± 5
Method: Inhibition of the aspirin-induced stomach ulcer in rats
This test is very common in the pharmacological practice. Female H-Wistar rats weighing 120 to 150 g. were starved for 24 hours while receiving water ad libitum. The stomach ulcer was induced by the oral administration of 100 mg./kg. aspirin in a Tween 80 suspension. The test substance was given immediately after the aspirin treatment. At the end of the 4th hour after treatment the animals were killed by an overdose of ether, their stomach was excised and cut along the major curvature. The stomach content was washed out and the hemorrhagic lesions on the glandular surface were counted.

[3] = Oral toxicity in rats; details: rat, in vivo
[4] = tested on: gastric acid secretion in Shay rats; assay: Inhibition of the gastric acid secretion in Shay rats; type: in vivo, Female H-Wistar rats; details: for HCl output (4 hours): N 5, control 520 ± 28
Method: Inhibition of the gastric acid secretion in Shay rats
Female H-Wistar rats weighing 120 to 150 g were starved for 24 hours while receiving water ad libitum. Then, the pylorus of the animals was ligated under a mild ether anesthesia. The test substances were administered orally or intraperitoneally. After 4 hours the animals were killed by an overdose of ether and after excision of the stomach, the volume and pH value of the gastric juice were measured. The acid content was determined by titration against 0.01N sodium hydroxide solution by using phenolphthalein as indicator.

[5] = tested on: ethanolic hydrochloric acid-induced gastric edema and hemorrhagic lesions; assay: Inhibition of the ethanolic hydrochloric acid-induced gastric necrosis; type: in vivo, Female RG-Wistar rats; details: for Hemorrhagic lesions / Edema: ± S.E.M.; for Hemorrhagic lesions: control 132 ± 7; for Edema: control 349 ± 81; for ED50: Rattus norvegicus, oral
Method: Inhibition of the ethanolic hydrochloric acid-induced gastric necrosis Female RG-Wistar rats weighing 120 to 150 g. were used for these investigations. The animals were starved for 24 hours while receiving water ad libitum. […] The test substances were orally administered 30 minutes before the treatment with the ethanolic hydrochloric acid. One hour later the animals were killed by an overdose of ether. Their stomach was removed and cut along the major curvature. The stomach was cleaned and its wet weight was weighed. The gastric edema was calculated from the difference between the obtained wet weight and the wet weight of the stomach of the untreated animals. Thereafter, the stomach was dried at room temperature and the presence of the hemorrhagic lesions was visually observed on the next day. The degree of the gastric necrosis was characterized by the mean value of the damage in mm./stomach. The results were statistically evaluated by Student's test.

[6] = 3 × (50 + 10) mg./kg. p.o. with Indomethacin
[7] = 3 × (25 + 10) mg./kg. p.o. with Indomethacin
[8] = 50 mg./kg. p.o., p < 0.01 vs control

CN1CCN(CC(=O)N2c3ccccc3C(=O)Nc3cccnc32)CC1 [Pirenzepine, reference compound]
Tensile strength of the intestinal wall at 24 hours after the last treatment [1, 6]: 121 ± 26 mmHg | Resistance of the intestinal wall as % of the normal value [1, 6]: 51%

CC[C@@]1(CCC(=O)N[C@H](C)c2ccccc2)CCCN2CCc3c([nH]c4ccccc34)[C@@H]21 [RGH-2961, (-)-(1S,12bS)-1-ethyl-1,2,3,4,6,7,12,12b-octahydroindolo[2,3-a]quinolizin-1-yl-propionic acid (R)-1-phenylethylamide]
No. of ulcers per stomach ([2]; 5 mg./kg. p.o. + aspirin 100 mg./kg., N 10): 7.1 ± 2 | Inhibition ([2]; 5 mg./kg. p.o., p < 0.01 vs aspirin control): 58% | Inhibition ([2]; 10 mg./kg. p.o.): 32% | No. of ulcers per stomach ([2]; 10 mg./kg. p.o. + aspirin 100 mg./kg., N 10): 11.0 ± 3 | No. of ulcers per stomach ([2]; 20 mg./kg. p.o. + aspirin 100 mg./kg., N 20): 3.5 ± 2.1 | Inhibition ([2]; 20 mg./kg. p.o., p < 0.01 vs aspirin control): 79% | No. of ulcers per stomach ([2]; 50 mg./kg. p.o. + aspirin 100 mg./kg., N 10): 2.5 ± 1.5 | Inhibition ([2]; 50 mg./kg. p.o., p < 0.01 vs aspirin control): 85% | ED50 ([2]; Rattus norvegicus, 4 h, aspirin-induced gastric ulcer formation, oral): 8 mg/kg | Tensile strength of the intestinal wall at 24 hours after the last treatment ([1]; 3 × (12 + 10) mg./kg. p.o. with Indomethacin): 132 ± 16 mmHg | Tensile strength of the intestinal wall at 24 hours after the last treatment [1, 7]: 195 ± 8 mmHg | Resistance of the intestinal wall as % of the normal value [1, 7]: 82% | Tensile strength of the intestinal wall at 24 hours after the last treatment [1, 6]: 214 ± 6 mmHg | Resistance of the intestinal wall as % of the normal value [1, 6]: 90% | Resistance of the intestinal wall as % of the normal value ([1]; p.o. with Indomethacin): 55% | LD50 [3]: > 1500 mg/kg | HCl output inhibition ([4]; 6 mg./kg. i.p.): 19% | HCl output (4 hours) ([4]; 6 mg./kg. i.p., ± S.E.M.): 425 ± 40 μmole/100 g. of body weight | HCl output inhibition ([4]; 10 mg./kg. p.o.): 8% | HCl output (4 hours) ([4]; 10 mg./kg. p.o., ± S.E.M.): 483 ± 40 μmole/100 g. of body weight | HCl output inhibition ([4]; 12 mg./kg. i.p., p < 0.01 vs control): 63% | HCl output (4 hours) ([4]; 12 mg./kg. i.p., ± S.E.M.): 195 ± 25 μmole/100 g. of body weight | HCl output inhibition ([4]; 20 mg./kg. p.o.): 10% | HCl output (4 hours) ([4]; 20 mg./kg. p.o., ± S.E.M.): 468 ± 35 μmole/100 g. of body weight | HCl output inhibition ([4]; 25 mg./kg. i.p.): 100% | HCl output (4 hours) ([4]; 25 mg./kg. i.p.): 0 μmole/100 g. of body weight | HCl output inhibition ([4]; 40 mg./kg. p.o.): 22% | HCl output (4 hours) ([4]; 40 mg./kg. p.o., ± S.E.M.): 409 ± 30 μmole/100 g. of body weight | Edema Inhibition ([5]; 1 mg./kg. p.o.): 0% | Hemorrhagic lesions Inhibition ([5]; 1 mg./kg. p.o.): 36% | Hemorrhagic lesions ([5]; 1 mg./kg. p.o., N 7): 88 ± 28 mm. | Edema ([5]; 1 mg./kg. p.o., N 7): 345 ± 93 mg | Edema Inhibition ([5]; 10 mg./kg. p.o.): 44% | Hemorrhagic lesions Inhibition ([5]; 10 mg./kg. p.o., p < 0.01 vs control): 62% | Hemorrhagic lesions ([5]; 10 mg./kg. p.o., N 7): 51 ± 9 mm. | Edema ([5]; 10 mg./kg. p.o., N 7): 197 ± 52 mg | Edema Inhibition [5, 8]: 85% | Hemorrhagic lesions Inhibition [5, 8]: 88% | Hemorrhagic lesions ([5]; 50 mg./kg. p.o., N 7): 17 ± 6 mm. | Edema ([5]; 50 mg./kg. p.o., N 7): 53 ± 41 mg | ED50 ([5]; gastric edema, read-out: oral ED50 value of the gastric edema inhibition): 12.5 mg/kg | ED50 ([5]; hemorrhagic lesions, read-out: oral ED50 value of the gastric hemorrhagic lesion inhibition): 3 mg/kg

CN/C(=N/CCSCc1nc[nH]c1C)NC#N [Cimetidine, reference compound]
Tensile strength of the intestinal wall at 24 hours after the last treatment [1, 6]: 20 ± 25 mmHg | Resistance of the intestinal wall as % of the normal value [1, 6]: 8% | Edema Inhibition ([5]; 100 mg./kg. p.o.): 14% | Hemorrhagic lesions Inhibition ([5]; 100 mg./kg. p.o., p < 0.01 vs control): 69% | Hemorrhagic lesions ([5]; 100 mg./kg. p.o., N 8): 42 ± 13 mm. | Edema ([5]; 100 mg./kg. p.o., N 8): 301 ± 42 mg
